4 molecules from patent US8367873B2, “Phenyl-substituted bicyclooctane-1,3-dione derivatives” (Bayer Cropscience AG, priority 2008, dated 2013) can be followed below.

Common to all, as to format: in vivo
Experiment [1] deals with Setaria viridis. Kind of experiment: Herbicidal pre-emergence action. The following applies: pre-emergence method, 80 g/ha, greenhouse, visual assessment vs untreated controls. The method in brief: (§1)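 Visual percent damage score (100% = dead plants, 0% = as untreated control) taken three weeks after pre-emergence treatment. Compounds were wettable powders sprayed onto covering soil over seeds in sandy loam, 600 l/ha water with 0.2% wetting agent, several application amounts; pots kept in greenhouse.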

The subject of experiment [2] is Alopecurus myosuroides. The experiment can be described thus: Herbicidal pre-emergence action. The following applies: pre-emergence method, 80 g/ha, greenhouse, visual assessment vs untreated controls. The method in brief:
as §1

The subject of experiment [3] is Lolium multiflorum. The experiment can be described thus: Herbicidal pre-emergence action. Conditions: pre-emergence method, 80 g/ha, greenhouse, visual assessment vs untreated controls. The essentials:
as §1

The subject of experiment [4] is Echinocloa crus-galli. The experiment can be described thus: Herbicidal pre-emergence action. Conditions: pre-emergence method, 80 g/ha, greenhouse, visual assessment vs untreated controls. The essentials: as §1
For experiment [5], the system named is Setaria viridis. The experiment can be described thus: Herbicidal post-emergence action. The following applies: post-emergence method, 80 g/ha. The method in brief: (§2)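 Percent herbicidal effect (0% like control, 100% plants dead) was rated by eye roughly three weeks post-treatment. Treatment was a post-emergence spray of wettable-powder formulations at different doses, 600 l/ha water with 0.2% wetter, onto one-leaf-stage weeds and crops grown in greenhouse pots.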

Experiment [6] concerns Alopecurus myosuroides. The experiment can be described thus: Herbicidal post-emergence action. Conditions: post-emergence method, 80 g/ha. The essentials:
as §2

Experiment [7] has as its system Lolium multiflorum. Kind of experiment: Herbicidal post-emergence action. The following applies: post-emergence method, 80 g/ha. The method in brief: as §2
Experiment [8] concerns Echinocloa crus-galli. Kind of experiment: Herbicidal post-emergence action. Conditions: post-emergence method, 80 g/ha. The method in brief:
as §2

In experiment [9] the test system is monocotylidonous and dicotylidonous weed and crop plants. Kind of experiment: Herbicidal pre-emergence action (other test plants). Conditions: pre-emergence method, 80 g/ha, greenhouse, visual assessment vs untreated controls. The essentials: as §1
For the next experiment, the system named is cereals. The experiment can be described thus: Container trials with cereals in the greenhouse, use of safeners (Mefenpyr 1 day prior to herbicide application). Here is the method:
Seeds of monocotylidonous and dicotylidonous weed and crop plants are placed in sandy loam in wood fibre pots, covered with soil and cultivated in a greenhouse under good growth conditions. Two to three weeks after sowing, the test plants are treated at the one-leaf stage. The test compounds, formulated as wettable powders (WP), are then with a water application rate of 600 l/ha (converted), with 0.2% of wetting agent added, sprayed onto the green parts of the plants in different amounts. After the test plants have been kept in the greenhouse under optimum growth conditions for about three weeks, the effect of the preparations is assessed visually in comparison to untreated controls (herbicidal effect in percent: 100% effect=the plants have died, 0% effect=like control plants).
If it is to be additionally tested as to whether safeners can improve the plant compatibility of test substances in the case of crop plants, the following options are used for applying the safeners: • Seeds of the crop plants are, before sowing, dressed with safener substance (the amount of safener stated in percent, based on the weight of the seed) • Before the application of the test substances, the crop plants are sprayed with the safener at a certain application rate per hectare (usually one day before the application of the test substances) • The safener is applied together with the test substance as a tank mix (the amount of safener stated in g/ha or as a ratio, based on the herbicide).
Container Trials with Cereals in the Greenhouse

The subject of experiment [10] is monocotylidonous and dicotylidonous weed and crop plants. The experiment can be described thus: Herbicidal post-emergence action (other test plants). Conditions: post-emergence method, 80 g/ha. The essentials: as §2
[11] abbreviates: 10 days after application, 12.5 g of a.i./ha.
Setting [12] is: 10 days after application, 25 g of a.i./ha.
Setting [13] is: 10 days after application, 50 g of a.i./ha.
[14] abbreviates: 28 days after application, 12.5 g of a.i./ha.
Where [15] appears, read: 28 days after application, 25 g of a.i./ha.
Setting [16] is: 28 days after application, 50 g of a.i./ha.
Where [17] appears, read: 28 days after application, 100 g of a.i./ha.

On to `CCOC(=O)OC1=C(c2c(CC)cc(C)cc2CC)C(=O)[C@@H]2CC3(C[C@H]12)OCCO3` (relative stereo) [I-c-7], for which the “herbicidal effect SETVI” value in the experiment with Setaria viridis [1] was determined as 70%. The “herbicidal effect ALOMY” value with Alopecurus myosuroides [2] amounted to 100%. For the same molecule, in the experiment on Lolium multiflorum [3], the “herbicidal effect LOLMU” value was found to be 90%. In addition, the “herbicidal effect ECHCG” value in the experiment with Echinocloa crus-galli [4] was 100%. Moreover, the “herbicidal effect against SETVI (Setaria viridis)” value (shortened to “herbicidal effect against SETVI”) with Setaria viridis [5] was 80%. Besides, in the experiment on Alopecurus myosuroides [6], the “herbicidal effect against ALOMY (Alopecurus myosuroides)” value (from here on “herbicidal effect against ALOMY”) worked out at 90%. Besides, in the experiment with Lolium multiflorum [7], the “herbicidal effect against LOLMU (Lolium multiflorum)” value (“herbicidal effect against LOLMU” below) amounted to 100%. In addition, the “herbicidal effect against ECHCG (Echinochloa crus-galli)” value (shortened to “herbicidal effect against ECHCG”) in the experiment on Echinocloa crus-galli [8] worked out at 100%. Also, the “herbicidal effect AVEFA” value in experiment [9] was found to be 70%. Also, the “Summer wheat observed (%)” value in the experiment with cereals (setting [11]) worked out at 40%; with cereals (setting [12]), 50%; with cereals (setting [13]), 60%; in the experiment on cereals (setting [14]), 10%; in the experiment on cereals (setting [15]), 30%; with cereals (setting [16]), 30%. The “Summer wheat observed (%)” value in the experiment with cereals (setting [17]) is 30%. In addition, in experiment [10], the “herbicidal effect against AVEFA (Avena fatua)” value (“herbicidal effect against AVEFA” for short) turned out to be 70%.

`CCc1cc(C)cc(CC)c1C1=C(O)C2CC3(CC2C1=O)OCC(C)O3` (mixture of isomers) [I-a-10]: the “herbicidal effect SETVI” value with Setaria viridis [1] was found to be 60%. Further, the “herbicidal effect ALOMY” value in the experiment with Alopecurus myosuroides [2] is 70%. The “herbicidal effect LOLMU” value in the experiment on Lolium multiflorum [3] stood at 100%. In addition, the “herbicidal effect ECHCG” value with Echinocloa crus-galli [4] stood at 80%. In addition, in the experiment with Setaria viridis [5], the “herbicidal effect against SETVI” value came to 90%. For the same molecule, the “herbicidal effect against ALOMY” value in the experiment with Alopecurus myosuroides [6] was 90%. Also, the “herbicidal effect against LOLMU” value with Lolium multiflorum [7] stood at 100%. Also, the “herbicidal effect against ECHCG” value in the experiment on Echinocloa crus-galli [8] worked out at 100%. Moreover, in experiment [9], the “herbicidal effect AVEFA” value turned out to be 50%. The “Summer wheat observed (%)” value with cereals (setting [11]) was 30%; with cereals (setting [12]), 50%; in the experiment with cereals (setting [13]), 60%. In addition, in experiment [10], the “herbicidal effect against AVEFA” value is reported as 80%.

In the case of `C=C1COC2(CC3C(=O)C(c4c(CC)cc(C)cc4CC)=C(OC(=O)C(C)C)C3C2)OC1` (centres unmarked) [I-b-13], the “herbicidal effect SETVI” value with Setaria viridis [1] was 100%. The “herbicidal effect ALOMY” value in the experiment on Alopecurus myosuroides [2] is recorded as 100%. Also, in the experiment with Lolium multiflorum [3], the “herbicidal effect LOLMU” value is 100%. For the same molecule, the “herbicidal effect ECHCG” value with Echinocloa crus-galli [4] stood at 100%. Also, in the experiment with Setaria viridis [5], the “herbicidal effect against SETVI” value came out at 100%. Besides, the “herbicidal effect against ALOMY” value in the experiment with Alopecurus myosuroides [6] stood at 100%. Also, the “herbicidal effect against LOLMU” value in the experiment on Lolium multiflorum [7] is given as 100%. In the experiment with Echinocloa crus-galli [8], the “herbicidal effect against ECHCG” value was 100%. For the same molecule, in [9], the “herbicidal effect AVEFA” value was 80%. Moreover, the “Summer barley observed (%)” value in the experiment on cereals (setting [16]) is 20%; in the experiment on cereals (setting [17]) it was 50%. Also, the “Summer wheat observed (%)” value in the experiment on cereals (setting [14]) is given as 20%; with cereals (setting [15]), 40%; with cereals (setting [16]), 80%; with cereals (setting [17]), 85%. The “herbicidal effect against AVEFA” value in [10] was 100%.

Consider `CCOC(=O)OC1=C(c2c(CC)cc(C)cc2CC)C(=O)[C@@H]2CC3(C[C@H]12)OCCCO3` (relative stereo) [I-c-14], for which the “herbicidal effect SETVI” value in the experiment with Setaria viridis [1] is reported as 70%. Further, the “herbicidal effect ALOMY” value with Alopecurus myosuroides [2] is given as 90%. In addition, in the experiment on Lolium multiflorum [3], the “herbicidal effect LOLMU” value amounted to 100%. Besides, the “herbicidal effect ECHCG” value with Echinocloa crus-galli [4] came to 90%. Also, the “herbicidal effect against SETVI” value in the experiment with Setaria viridis [5] is recorded as 100%. The “herbicidal effect against ALOMY” value in the experiment with Alopecurus myosuroides [6] is listed as 90%. Also, the “herbicidal effect against LOLMU” value with Lolium multiflorum [7] is on record as 100%. Further, the “herbicidal effect against ECHCG” value in the experiment with Echinocloa crus-galli [8] was 100%. The “herbicidal effect AVEFA” value in [9] was 70%. The figures for the “Summer barley observed (%)” value in the experiment on cereals (setting [16]) and in the experiment on cereals (setting [17]) were 10% and 20%, respectively. Also, the “Summer wheat observed (%)” value is 40% with cereals (setting [14]), 50% in the experiment with cereals (setting [15]), 60% in the experiment on cereals (setting [16]) and 70% with cereals (setting [17]). Further, in experiment [10], the “herbicidal effect against AVEFA” value is listed as 70%.
